Laboratory results from PubChem BioAssay AID1963863 (Molecular Pharmacology Branch, DTP, NCI, 2024).
pIC50: −log10 of the molar value.

Test system: 931267-113-T-J1-PDC KRAS spheroid with HUVEC/MSC, viability
Test: Anticancer human tumor 931267-113-T-J1-PDC patient-derived colon adenocarcinoma cell line growth inhibition [KRAS2]
Settings: for pIC50: curve of first compound; for viability, T/C: stronger effect = lower value
Description: Multicellular complex tumor spheroid response to RAS pathway inhibitors in combination with a targeted agents in patient-derived cell lines with oncogenic KRAS variants from multiple cancer types
A high-throughput screen of multi-cell type tumor spheroids was designed to identify active combinations of targeted small molecules and KRAS pathway inhibitors. Complex spheroids include a stromal component modeled by human endothelial cells (HUVEC) and fibroblasts modeled by human mesenchymal stem cells (MSCs). The concentration ranges selected for each drug and investigational agent were based upon clinically achievable concentrations if the clinical Cmax of the agent was known.
Compounds. The drugs and investigational agents: BI-3406 (NSC825286), BAY-293 (NSC824723), batoprotafib (TNO155; NSC825523), sotorasib (AMG 510; NSC818433), MRTX1257 (NSC819558), elimusertib (BAY 1895344; NSC800525), molibresib (GSK525762; NSC774829), temuterkib (LY3214996; NSC803410), venetoclax (NSC766270), alisertib (NSC759677), olaparib (NSC753686), talazoparib (NSC767125), erdafitinib (NSC781556), ipatasertib (NSC767898), cabozantinib (NSC761068), nintedanib (NSC756659), abemaciclib (NSC768073), docetaxel (NSC628503), trametinib (NSC758246), and sapanisertib (NSC764658) were obtained from the National Cancer Institute (NCI) Developmental Therapeutics Program Chemical Repository. The FDA-approved anticancer drug set is available from the Developmental Therapeutics Program. […] The stock solutions were prepared in dimethyl sulfoxide (DMSO, Sigma-Aldrich, St. Louis, MO, cat. D2650) at 800-fold the tested concentration and stored at -70 degrees C prior to their use. All drugs and investigational agents were tested over a range starting from a high concentration at or near the clinical Cmax and decreasing in half-log increments. If the clinical Cmax for an agent had not been determined, the highest concentration tested was 10 microM.
Cell Culture. All cells were maintained in an incubator at 37 degrees C and 5% CO2 with 95% humidity. The PDC lines were cultured according to standard operating procedures established by the NCI PDMR (https://pdmr.cancer.gov/sops/default.htm). Briefly, all PDCs were thawed and cultured in Matrigel-coated flasks prepared with a working solution of 1X Ham's F-12 nutrient mix, without supplementation (Invitrogen, Waltham, MA, cat. 11765054), 100 U/mL penicillin-streptomycin (Invitrogen, cat. 15140122), and 2.5% Matrigel (Corning Inc., Corning, NY, cat. 354248) for the first three passages. All PDCs were cultured in complete DMEM/F-12 media containing advanced DMEM/F-12 (Invitrogen, cat. 12634028), 4.9% defined fetal bovine serum, heat inactivated (HyClone Laboratories Inc., Logan, UT, cat. SH30070.03HI), 389 ng/mL hydrocortisone (Sigma-Aldrich, cat. H4001), 9.7 ng/mL human EGF recombinant protein (Invitrogen, cat. PHG0313), 23.4 microg/mL adenine (Sigma-Aldrich, cat. A2786), 97.3 U/mL penicillin-streptomycin (Invitrogen, cat. 15140122), 1.9 mM L-glutamine (Invitrogen, cat. 25030081), and 9.7 microM Y-27632 dihydrochloride (Tocris Bioscience, Bristol, United Kingdom, cat. 1254). The PDCs were cultured in complete DMEM/F12 media without 9.7 microM Y-27632 dihydrochloride for at least two passages prior to the screen. The established cell line HOP-62 was cultured in RPMI 1640 medium, HEPES (Invitrogen, cat. 22400105) with 10% defined fetal bovine serum (HyClone Laboratories Inc., cat. SH30070.03) and 2 mM L-glutamine (Invitrogen, cat. 25030081). The pooled donor HUVEC were cultured in endothelial cell growth medium 2 (PromoCell, Heidelberg, Germany, cat. C-22011) and the hMSC were cultured in mesenchymal stem cell growth medium 2 (PromoCell, cat. C-28009). For all experiments, HUVEC and hMSC were used at passages </=5, while the malignant cell lines were used at passages </=15. […]

[1] = second compound 0.1 µM, first compound 0.01 µM
[2] = second compound 0.1 µM, first compound 0.0316 µM
[3] = second compound 0.1 µM, first compound 0.1 µM
[4] = second compound 0.1 µM, first compound 0.316 µM
[5] = second compound 0.1 µM, first compound 1 µM
[6] = second compound 0.1 µM, first compound 3.16 µM
[7] = second compound 0.316 µM, first compound 0.01 µM
[8] = second compound 0.316 µM, first compound 0.0316 µM
[9] = second compound 0.316 µM, first compound 0.1 µM
[10] = second compound 0.316 µM, first compound 0.316 µM
[11] = second compound 0.316 µM, first compound 1 µM
[12] = second compound 0.316 µM, first compound 3.16 µM
[13] = second compound 1 µM, first compound 0.01 µM
[14] = second compound 1 µM, first compound 0.0316 µM
[15] = second compound 1 µM, first compound 0.1 µM
[16] = second compound 1 µM, first compound 0.316 µM
[17] = second compound 1 µM, first compound 1 µM
[18] = second compound 1 µM, first compound 3.16 µM
[19] = second compound 3.16 µM, first compound 0.01 µM
[20] = second compound 3.16 µM, first compound 0.0316 µM
[21] = second compound 3.16 µM, first compound 0.1 µM
[22] = second compound 3.16 µM, first compound 0.316 µM
[23] = second compound 3.16 µM, first compound 1 µM
[24] = second compound 3.16 µM, first compound 3.16 µM
[25] = second compound 10 µM, first compound 0.01 µM
[26] = second compound 10 µM, first compound 0.0316 µM
[27] = second compound 10 µM, first compound 0.1 µM
[28] = second compound 10 µM, first compound 0.316 µM
[29] = second compound 10 µM, first compound 1 µM
[30] = second compound 10 µM, first compound 3.16 µM
[31] = second compound 0.1 µM, first compound 10 µM
[32] = second compound 0.316 µM, first compound 10 µM
[33] = second compound 1 µM, first compound 10 µM
[34] = second compound 3.16 µM, first compound 10 µM
[35] = second compound 10 µM, first compound 10 µM
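Further: compound exposure lasted 7 days before the readout.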
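Wherever viability, T/C is given: 100% = DMSO vehicle control viability.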

Row | SMILES | pIC50 (second compound 0.1 µM) | pIC50 (second compound 0.316 µM) | pIC50 (second compound 1 µM) | pIC50 (second compound 3.16 µM) | pIC50 (second compound 10 µM) | viability, T/C [2] [%] | viability, T/C [3] [%] | viability, T/C [4] [%] | viability, T/C [5] [%] | viability, T/C [8] [%] | viability, T/C [9] [%] | viability, T/C [10] [%] | viability, T/C [11] [%] | viability, T/C [14] [%] | viability, T/C [15] [%] | viability, T/C [16] [%] | viability, T/C [17] [%] | viability, T/C [20] [%] | viability, T/C [21] [%] | viability, T/C [22] [%] | other results
1 | CC1COCCN1c1cc(-c2ccnn2C)c2ccnc(-c3ccn[nH]3)c2n1 (stereo not given) + C=CC(=O)N1CCN(c2nc(=O)n(-c3c(C)ccnc3C(C)C)c3nc(-c4c(O)cccc4F)c(F)cc23)C(C)C1 | 7.38 | 7.30 | 7.35 | 7.27 | 7.55 | 58 | 25.9 | 17.3 | 20 | 68.7 | 22.5 | 18.1 | 19.9 | 59.5 | 27.5 | 21.1 | 22.1 | 71.4 | 24.8 | 18.4 | viability, T/C [1]: 95.5%; viability, T/C [6]: 19.7%; viability, T/C [7]: 90.1%; viability, T/C [12]: 20.4%; viability, T/C [13]: 122%; viability, T/C [18]: 22.6%; viability, T/C [19]: 117%; viability, T/C [23]: 21.8%; viability, T/C [24]: 22.1%; viability, T/C [25]: 92.8%; viability, T/C [26]: 45.1%; viability, T/C [27]: 24.1%; viability, T/C [28]: 23.9%; viability, T/C [29]: 24.2%; viability, T/C [30]: 19.9%
2 | CCN1CCN(Cc2ccc(Nc3ncc(F)c(-c4cc(F)c5nc(C)n(C(C)C)c5c4)n3)nc2)CC1 + C=CC(=O)N1CCN(c2nc(=O)n(-c3c(C)ccnc3C(C)C)c3nc(-c4c(O)cccc4F)c(F)cc23)C(C)C1 | < 6.00 | < 6.00 | < 6.00 | < 6.00 | 6.44 | 81.2 | 87.4 | 71.8 | 50.8 | 82.5 | 65.8 | 60.8 | 50.8 | 78.4 | 80.9 | 60.7 | 51 | 83.5 | 73.6 | 74.3 | viability, T/C (second compound 0.1 µM, first compound 0.00316 µM): 103%; viability, T/C [1]: 73.6%; viability, T/C (second compound 0.316 µM, first compound 0.00316 µM): 95.2%; viability, T/C [7]: 88.3%; viability, T/C (second compound 1 µM, first compound 0.00316 µM): 105%; viability, T/C [13]: 83.1%; viability, T/C (second compound 3.16 µM, first compound 0.00316 µM): 94%; viability, T/C [19]: 90.3%; viability, T/C [23]: 47.5%; viability, T/C (second compound 10 µM, first compound 0.00316 µM): 89.1%; viability, T/C [25]: 99.9%; viability, T/C [26]: 90.2%; viability, T/C [27]: 72.5%; viability, T/C [28]: 60.1%; viability, T/C [29]: 4.51%
3 | CCNC(=O)CC1N=C(c2ccc(Cl)cc2)c2cc(OC)ccc2-n2c(C)nnc21 (stereo not given) + C=CC(=O)N1CCN(c2nc(=O)n(-c3c(C)ccnc3C(C)C)c3nc(-c4c(O)cccc4F)c(F)cc23)C(C)C1 | 5.58 | 5.31 | 5.35 | < 5.00 | 5.37 | 103 | 97.6 | 80.8 | 68.5 | 88.4 | 81.2 | 68.3 | 59.7 | 120 | 82.8 | 84.4 | 64.1 | 101 | 92.7 | 78.6 | viability, T/C [6]: 43%; viability, T/C [31]: 40.8%; viability, T/C [12]: 55%; viability, T/C [32]: 44.5%; viability, T/C [18]: 56.1%; viability, T/C [33]: 40.8%; viability, T/C [23]: 65.3%; viability, T/C [24]: 59.1%; viability, T/C [34]: 51.8%; viability, T/C [26]: 94.5%; viability, T/C [27]: 102%; viability, T/C [28]: 82.6%; viability, T/C [29]: 74.6%; viability, T/C [30]: 50.7%; viability, T/C [35]: 43%
4 | Cn1nccc1Nc1nccc(-c2cc3c(s2)C(C)(C)N(CCN2CCOCC2)C3=O)n1 + C=CC(=O)N1CCN(c2nc(=O)n(-c3c(C)ccnc3C(C)C)c3nc(-c4c(O)cccc4F)c(F)cc23)C(C)C1 | 6.25 | 6.22 | 6.22 | 6.21 | 6.15 | 94.2 | 90.4 | 63.4 | 38.2 | 109 | 84.2 | 74.9 | 34 | 82 | 104 | 72.8 | 30.6 | 93.3 | 101 | 81.1 | viability, T/C [6]: 5.19%; viability, T/C [31]: 5.01%; viability, T/C [12]: 8.86%; viability, T/C [32]: 5.22%; viability, T/C [18]: 6.74%; viability, T/C [33]: 6.41%; viability, T/C [23]: 26.6%; viability, T/C [24]: 9.57%; viability, T/C [34]: 9.73%; viability, T/C [26]: 91.2%; viability, T/C [27]: 95.3%; viability, T/C [28]: 74.9%; viability, T/C [29]: 39.3%; viability, T/C [30]: 14.1%; viability, T/C [35]: 11%
